# Measurements as given in patent US4081441A, “Antibacterial agents” (priority 1977, dated 1978).
# Like-named read-outs stand apart in the source and are kept apart here.
# What was measured:
# Pseudomonas aeruginosa [1] = experiment: Minimum Bactericidal Concentration, inoculum 10^5 cells/ml., at least 99.9% kill; assay type: cell-based
# From the text: The effect of increased inoculum size on the bactericidal activity of BL-P1908 was investigated by a second test in which an inoculum size of 10^5 cells/ml. was used and the M.B.C. was defined as the lowest concentration of antibiotics in mcg./ml. needed to kill at least 99.9% of viable Pseudomonas cells.
# Bacteroides fragilis = experiment: M.I.C. against anaerobic bacteria, Bacteroides fragilis; assay type: cell-based
# Cl. perfringens = experiment: microbe, parasite or virus in culture; assay type: cell-based; conditions: Clostridium perfringens
# Cl. cylindrosporum = experiment: M.I.C. against anaerobic bacteria, Cl. cylindrosporum; assay type: cell-based; conditions: strain A9562
# [2] = Mouse blood (plasma) antibiotic levels after single intramuscular dose; assay type: in vivo; conditions: im, 40 mg/kg, mice, 40 mg./kg. i.m.; for concentration at 0.25 h: 15 min.; for concentration at 0.5 h: 30 min.; for concentration at 1 h: 60 min.; for concentration at 1.5 h: 90 min.
# Description: Plasma antibiotic levels from mice administered a single intramuscular dose of 40 mg./kg. of BL-[…] or carbenicillin are shown in the following table.
# Pseudomonas aeruginosa [3] = experiment: Minimum Inhibitory Concentration, agar dilution, overnight incubation at 37° C.; assay type: cell-based; conditions: Pseudomonas aeruginosa
# From the text: A carbenicillin sample was also run for comparative purposes.
# Pseudomonas aeruginosa [4] = experiment: animal or person; conditions: in Mus musculus, im
# Cl. septicum = experiment: M.I.C. against anaerobic bacteria, Cl. septicum; assay type: cell-based; conditions: Clostridium septicum; strain A21869
# Cl. ramosum = experiment: M.I.C. against anaerobic bacteria, Cl. ramosum; assay type: cell-based; conditions: Thomasclavelia ramosa
# Pseudomonas aeruginosa [5] = experiment: Minimum Bactericidal Concentration, inoculum 10^4 cells/ml., at least 99% kill; assay type: cell-based
# Description: The bactericidal in vitro activity of sodium D(-)-6-(α-(1,2,4-triazine-3,5-dione-6-carboxamido)-4-hydroxyphenylacetamido)penicillanate (BL-P1908) against several strains of Pseudomonas aeruginosa was determined under two sets of conditions. In one test the Minimum Bactericidal Concentrations (M.B.C.) were determined using an inoculum size of 10^4 cells/ml. and the M.B.C. was defined as the lowest concentration of antibiotic in mcg./ml. needed to kill at least 99% of the viable Pseudomonas cells.
# Cl. difficile = experiment: M.I.C. against anaerobic bacteria, Cl. difficile; assay type: cell-based; conditions: Clostridioides difficile
# Cl. acidiurici = experiment: M.I.C. against anaerobic bacteria, Cl. acidiurici; assay type: cell-based; conditions: strain A9560
# [6] = Ave. of Tests 1 and 2, read-out: Blood Level
# [7] = Test 1 (Ave. of 6 mice tested), read-out: Blood Level
# [8] = Test 2 (Ave. of 8 mice tested), read-out: Blood Level
# [9] = read-out: PD50 /treatment, P. aeruginosa A9843A, challenge 1 × 10^4, i.m., at 0 and 2 hours
# [10] = read-out: PD50 /treatment, P. aeruginosa A9843A, challenge 2 × 10^4, i.m., at 0 and 2 hours
# [11] = read-out: PD50 /treatment, P. aeruginosa A9843A, challenge 3 × 10^4, i.m., at 0 and 2 hours
# [12] = read-out: PD50 /treatment, P. aeruginosa A20599, challenge 3 × 10^4, i.m., at 0 and 2 hours
# [13] = read-out: PD50 /treatment, P. aeruginosa A20599, challenge 6 × 10^4, i.m., at 0 and 2 hours
structure (smiles),measurement,setting,value
"CC1(C)S[C@@H]2[C@H](NC(=O)[C@H](NC(=O)c3n[nH]c(=O)[nH]c3=O)c3ccc(O)cc3)C(=O)N2[C@H]1C(=O)O [BL-P1908, sodium D(-)-6-(α-(1,2,4-triazine-3,5-dione-6-carboxamido)-4-hydroxyphenylacetamido)penicillanate]",MBC,Pseudomonas aeruginosa [1]; strain 9843A,500 µg/mL
same,MBC,Pseudomonas aeruginosa [1]; strain 9910,500 µg/mL
same,MBC,Pseudomonas aeruginosa [1]; strain 9926,250 µg/mL
same,MBC,Pseudomonas aeruginosa [1]; strain 20126,32 µg/mL
same,MBC,Pseudomonas aeruginosa [1]; strain 20128,16 µg/mL
same,MBC,Pseudomonas aeruginosa [1]; strain 20227,4 µg/mL
same,MBC,Pseudomonas aeruginosa [1]; strain 20228,250 µg/mL
same,MBC,Pseudomonas aeruginosa [1]; strain 20546,500 µg/mL
same,MBC,Pseudomonas aeruginosa [1]; strain 20557,1000 µg/mL
same,MBC,Pseudomonas aeruginosa [1]; strain 20574,> 1000 µg/mL
same,MBC,Pseudomonas aeruginosa [1]; strain 20602,1000 µg/mL
same,MBC,Pseudomonas aeruginosa [1]; strain 20616,1000 µg/mL
same,MBC,Pseudomonas aeruginosa [1]; strain 20641,1000 µg/mL
same,MBC,Pseudomonas aeruginosa [1]; strain 20717,> 1000 µg/mL
same,MBC,Pseudomonas aeruginosa [1]; strain 20726,1000 µg/mL
same,MBC,Pseudomonas aeruginosa [1]; strain 21336,1000 µg/mL
same,MIC,Bacteroides fragilis; strain A20920,1 µg/mL
same,MIC,Bacteroides fragilis; strain A20926,2 µg/mL
same,MIC,Bacteroides fragilis; strain A20927-1,1 µg/mL
same,MIC,Bacteroides fragilis; strain A20930,16 µg/mL
same,MIC,Bacteroides fragilis; strain A20933,8 µg/mL
same,MIC,Bacteroides fragilis; strain A20934,4 µg/mL
same,MIC,Bacteroides fragilis; strain A20935,1 µg/mL
same,MIC,Bacteroides fragilis; strain A21870,16 µg/mL
same,MIC,Bacteroides fragilis; strain A21871,16 µg/mL
same,MIC,Bacteroides fragilis; strain A21872,16 µg/mL
same,MIC,Bacteroides fragilis; strain A21875,4 µg/mL
same,MIC,Bacteroides fragilis; strain A22053,8 µg/mL
same,MIC,Bacteroides fragilis; strain A27020,16 µg/mL
same,MIC,Cl. perfringens; strain A21873,0.13 µg/mL
same,MIC,Cl. perfringens; strain A21874,0.13 µg/mL
same,MIC,Cl. perfringens; strain A21907,0.13 µg/mL
same,MIC,Cl. cylindrosporum,16 µg/mL
same,concentration at 0.25 h,[2]; [6],26700 ng/mL
same,concentration at 0.25 h,[2]; [7],24900 ng/mL
same,concentration at 0.25 h,[2]; [8],28400 ng/mL
same,concentration at 0.5 h,[2]; [6],17300 ng/mL
same,concentration at 0.5 h,[2]; [7],19400 ng/mL
same,concentration at 0.5 h,[2]; [8],15100 ng/mL
same,concentration at 1 h,[2]; [6],5300 ng/mL
same,concentration at 1 h,[2]; [7],7500 ng/mL
same,concentration at 1 h,[2]; [8],3000 ng/mL
same,concentration at 1.5 h,[2]; [6],< 2900 ng/mL
same,concentration at 1.5 h,[2]; [7],< 3900 ng/mL
same,concentration at 1.5 h,[2]; [8],< 1800 ng/mL
same,MIC,Pseudomonas aeruginosa [3]; strain A9502,2 µg/mL
same,MIC,Pseudomonas aeruginosa [3]; strain A9827,1 µg/mL
same,MIC,Pseudomonas aeruginosa [3]; strain A9910,1 µg/mL
same,MIC,Pseudomonas aeruginosa [3]; strain A9923,2 µg/mL
same,MIC,Pseudomonas aeruginosa [3]; strain A9924,2 µg/mL
same,MIC,Pseudomonas aeruginosa [3]; strain A9925,1 µg/mL
same,MIC,Pseudomonas aeruginosa [3]; strain A9926,1 µg/mL
same,MIC,Pseudomonas aeruginosa [3]; strain A9930,2 µg/mL
same,MIC,Pseudomonas aeruginosa [3]; strain A9931,1 µg/mL
same,MIC,Pseudomonas aeruginosa [3]; strain A15150,2 µg/mL
same,MIC,Pseudomonas aeruginosa [3]; strain A15151,8 µg/mL
same,MIC,Pseudomonas aeruginosa [3]; strain A15194,4 µg/mL
same,MIC,Pseudomonas aeruginosa [3]; strain A15195,2 µg/mL
same,MIC,Pseudomonas aeruginosa [3]; strain A15196,2 µg/mL
same,MIC,Pseudomonas aeruginosa [3]; strain A20125,2 µg/mL
same,MIC,Pseudomonas aeruginosa [3]; strain A20126,0.5 µg/mL
same,MIC,Pseudomonas aeruginosa [3]; strain A20127,1 µg/mL
same,MIC,Pseudomonas aeruginosa [3]; strain A20128,1 µg/mL
same,MIC,Pseudomonas aeruginosa [3]; strain A20129,1 µg/mL
same,MIC,Pseudomonas aeruginosa [3]; strain A20130,1 µg/mL
same,MIC,Pseudomonas aeruginosa [3]; strain A20227,0.5 µg/mL
same,MIC,Pseudomonas aeruginosa [3]; strain A20228,1 µg/mL
same,MIC,Pseudomonas aeruginosa [3]; strain A20546,2 µg/mL
same,MIC,Pseudomonas aeruginosa [3]; strain A20557,4 µg/mL
same,MIC,Pseudomonas aeruginosa [3]; strain A20574,0.5 µg/mL
same,MIC,Pseudomonas aeruginosa [3]; strain A20602,2 µg/mL
same,MIC,Pseudomonas aeruginosa [3]; strain A20616,1 µg/mL
same,MIC,Pseudomonas aeruginosa [3]; strain A20641,0.5 µg/mL
same,MIC,Pseudomonas aeruginosa [3]; strain A20717,4 µg/mL
same,MIC,Pseudomonas aeruginosa [3]; strain A20726,1 µg/mL
same,MIC,Pseudomonas aeruginosa [3]; strain A21336,2 µg/mL
same,ED50,Pseudomonas aeruginosa [4]; [9],4.8 mg/kg
same,ED50,Pseudomonas aeruginosa [4]; [10],2.5 mg/kg
same,ED50,Pseudomonas aeruginosa [4]; [11],11 mg/kg
same,ED50,Pseudomonas aeruginosa [4]; [12],5.4 mg/kg
same,ED50,Pseudomonas aeruginosa [4]; [13],9.6 mg/kg
same,MIC,Cl. septicum,1 µg/mL
same,MIC,Cl. ramosum; strain A21883,0.25 µg/mL
same,MIC,Cl. ramosum; strain A21970,2 µg/mL
same,MBC,Pseudomonas aeruginosa [5]; strain 9843A,63 µg/mL
same,MBC,Pseudomonas aeruginosa [5]; strain 9910,1 µg/mL
same,MBC,Pseudomonas aeruginosa [5]; strain 9926,2 µg/mL
same,MBC,Pseudomonas aeruginosa [5]; strain 20126,2 µg/mL
same,MBC,Pseudomonas aeruginosa [5]; strain 20128,2 µg/mL
same,MBC,Pseudomonas aeruginosa [5]; strain 20227,2 µg/mL
same,MBC,Pseudomonas aeruginosa [5]; strain 20228,8 µg/mL
same,MBC,Pseudomonas aeruginosa [5]; strain 20546,1 µg/mL
same,MBC,Pseudomonas aeruginosa [5]; strain 20557,16 µg/mL
same,MBC,Pseudomonas aeruginosa [5]; strain 20574,2 µg/mL
same,MBC,Pseudomonas aeruginosa [5]; strain 20616,2 µg/mL
same,MBC,Pseudomonas aeruginosa [5]; strain 20641,4 µg/mL
same,MBC,Pseudomonas aeruginosa [5]; strain 20717,63 µg/mL
same,MBC,Pseudomonas aeruginosa [5]; strain 20726,2 µg/mL
same,MBC,Pseudomonas aeruginosa [5]; strain 21336,2 µg/mL
same,MIC,Cl. difficile; strain A21675,2 µg/mL
same,MIC,Cl. difficile; strain A21972,4 µg/mL
same,MIC,Cl. acidiurici,1 µg/mL
"CC1(C)S[C@@H]2[C@H](NC(=O)[C@H](NC(=O)c3n[nH]c(=S)[nH]c3=O)c3ccc(O)cc3)C(=O)N2[C@H]1C(=O)O [BL-P1937, sodium D(-)-6-(α-(1,2,4-triazine-3-thione-5-one-6-carboxamido)-4-hydroxyphenylacetamido)-penicillanate]",MIC,Bacteroides fragilis; strain A20920,0.5 µg/mL
same,MIC,Bacteroides fragilis; strain A20926,2 µg/mL
same,MIC,Bacteroides fragilis; strain A20927-1,1 µg/mL
same,MIC,Bacteroides fragilis; strain A20930,16 µg/mL
same,MIC,Bacteroides fragilis; strain A20933,4 µg/mL
same,MIC,Bacteroides fragilis; strain A20934,4 µg/mL
same,MIC,Bacteroides fragilis; strain A20935,2 µg/mL
same,MIC,Bacteroides fragilis; strain A21870,1 µg/mL
same,MIC,Bacteroides fragilis; strain A21871,2 µg/mL
same,MIC,Bacteroides fragilis; strain A21872,16 µg/mL
same,MIC,Bacteroides fragilis; strain A21875,8 µg/mL
same,MIC,Bacteroides fragilis; strain A22053,2 µg/mL
same,MIC,Bacteroides fragilis; strain A27020,8 µg/mL
same,MIC,Cl. perfringens; strain A21873,0.063 µg/mL
same,MIC,Cl. perfringens; strain A21874,0.13 µg/mL
same,MIC,Cl. perfringens; strain A21907,0.25 µg/mL
same,MIC,Cl. cylindrosporum,0.25 µg/mL
same,ED50,Pseudomonas aeruginosa [4]; [9],11 mg/kg
same,ED50,Pseudomonas aeruginosa [4]; [10],5.4 mg/kg
same,ED50,Pseudomonas aeruginosa [4]; [11],11 mg/kg
same,ED50,Pseudomonas aeruginosa [4]; [12],~13 mg/kg
same,ED50,Pseudomonas aeruginosa [4]; [13],22 mg/kg
same,MIC,Cl. septicum,1 µg/mL
same,MIC,Cl. ramosum; strain A21883,0.25 µg/mL
same,MIC,Cl. ramosum; strain A21970,2 µg/mL
same,MIC,Cl. difficile; strain A21675,4 µg/mL
same,MIC,Cl. difficile; strain A21972,4 µg/mL
same,MIC,Cl. acidiurici,1 µg/mL
